We go through two molecules from ChEMBL document CHEMBL1806496, “Nothospondin, a new AP-1 inhibitory quassinoid from the Cameroonian plant Nothospondias staudtii” (Bioorg Med Chem Lett, 2011).

The subject of data set [1] is HEK-293T. Nature of the data set: Cytotoxicity against human HEK293T cells expressing AP-1 at 80 uM after 18 hrs by XTT assay. Format: cell-based.
A further data set concerns the target Transcription factor Jun (Homo sapiens, UniProt P05412). Nature of the data set: Inhibition of TPA-induced AP-1 activity expressed in human HEK293T cells treated 1 hr before TPA challenge measured after 18 hrs by FRET based beta-lactamase reporter assay. Format: cell-based, HEK-293T. The following applies: for inhibition: HEK-293T. In general terms: In a reporter assay the amount or activity of a reporter protein is the signal.

In data set [2] the test system is HEK-293T. Nature of the data set: Cytotoxicity against human HEK293T cells expressing AP-1 after 18 hrs by XTT assay. The format is cell-based. Background: Tetrazolium assays rely on reduction of a dye to a coloured formazan, in cell work by metabolically active cells.

pEC50, pIC50: −log10 of the molar value.

Sequence of Transcription factor Jun (P05412 whole entry): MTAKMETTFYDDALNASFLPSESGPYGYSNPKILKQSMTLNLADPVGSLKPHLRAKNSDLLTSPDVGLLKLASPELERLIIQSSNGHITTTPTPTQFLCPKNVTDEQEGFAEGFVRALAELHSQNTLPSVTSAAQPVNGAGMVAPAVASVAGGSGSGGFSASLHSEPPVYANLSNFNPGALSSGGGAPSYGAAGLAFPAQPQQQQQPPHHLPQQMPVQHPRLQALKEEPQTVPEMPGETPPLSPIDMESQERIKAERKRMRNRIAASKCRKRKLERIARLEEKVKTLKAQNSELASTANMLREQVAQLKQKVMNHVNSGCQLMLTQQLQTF

A word on the pEC50: it is the EC50 on a negative log10 scale, so that one unit is a factor of ten. A higher pEC50 goes with a low EC50. As to `CC[C@](C)(O)C(=O)O[C@H]1C(=O)O[C@@H]2C[C@H]3C(C)=CC(=O)[C@@H](O)[C@]3(C)[C@H]3[C@@]4(O)OC[C@]32[C@@H]1[C@@H](C)[C@H]4O` [GLAUCARUBINONE], the Activity entry in the data set with HEK-293T [1] is given as “Non-toxic”. Moreover, on Transcription factor Jun, the pEC50 was 6.89 and the inhibition result is “Dose-dependent effect”.
As a reminder, the pIC50 is −log10 of the IC50, conventionally taken in molar units. High values mean a low IC50, low ones a high IC50. `COC1=C(C)[C@@H]2CC(=O)O[C@@H]3C[C@H]4[C@H](C)[C@@H](O)[C@H](O)C(=O)[C@]4(C)[C@@H](C1=O)[C@@]32C` [NOTHOSPONDIN] gave a pIC50 in the data set on HEK-293T [2] of 5.00. In addition, at Transcription factor Jun, the pEC50 was 5.83 and the inhibition entry is “Dose-dependent effect”.
